Results taken from patent publication US12357631B2 (priority 2018, dated 2025).

Molecular target: PB2 (Influenza A virus, UniProt P03428)
Assay: biochemical
Type: binding

PB2, sequence (P03428 whole entry, looked up): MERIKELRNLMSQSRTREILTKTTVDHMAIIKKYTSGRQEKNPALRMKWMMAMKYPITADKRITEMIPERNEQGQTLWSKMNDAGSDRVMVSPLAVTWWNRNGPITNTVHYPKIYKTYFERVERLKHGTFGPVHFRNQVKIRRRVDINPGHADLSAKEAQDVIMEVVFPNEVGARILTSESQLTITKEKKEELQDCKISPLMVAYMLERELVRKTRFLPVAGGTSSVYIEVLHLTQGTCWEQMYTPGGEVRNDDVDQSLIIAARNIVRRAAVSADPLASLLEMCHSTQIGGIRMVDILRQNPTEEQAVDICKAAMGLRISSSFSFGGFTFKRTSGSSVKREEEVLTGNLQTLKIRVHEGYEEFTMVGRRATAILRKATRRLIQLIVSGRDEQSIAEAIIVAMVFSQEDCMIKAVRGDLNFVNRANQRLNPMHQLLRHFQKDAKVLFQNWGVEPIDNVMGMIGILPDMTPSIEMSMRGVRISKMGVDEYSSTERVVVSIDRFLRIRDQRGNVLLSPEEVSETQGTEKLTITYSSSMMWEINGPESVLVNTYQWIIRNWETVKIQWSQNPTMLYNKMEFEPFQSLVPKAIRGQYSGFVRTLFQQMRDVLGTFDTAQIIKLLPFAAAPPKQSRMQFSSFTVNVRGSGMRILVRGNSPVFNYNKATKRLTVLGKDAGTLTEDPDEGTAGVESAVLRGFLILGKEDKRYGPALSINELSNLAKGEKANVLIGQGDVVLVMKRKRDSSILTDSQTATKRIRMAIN

Row | SMILES | EC50 [µM]
1 | O=C(O)CCc1ccnc(C(=O)N[C@H]2CCC[C@@H](Nc3nc(-c4c[nH]c5ncc(F)cc45)ncc3F)C2)c1 [Compound A49] | < 5
2 | CCOc1ccccc1CNC(=O)OCc1ccnc(C(=O)N[C@H]2CCC[C@@H](Nc3nc(-c4c[nH]c5ncc(F)cc45)ncc3F)C2)c1 [Compound A133] | > 100
3 | CCOCCOCCOCCNC(=O)N(Cc1ccccc1)[C@@H]1CCC[C@H](Nc2nc(-c3c[nH]c4ncc(F)cc34)ncc2F)C1 [Compound B1] | > 100
4 | CCCOCCCCCCCN(C)C(=O)N[C@@H]1CCC[C@H](Nc2nc(-c3c[nH]c4ncc(F)cc34)ncc2F)C1 [Compound A235] | 50 to 100
5 | Cc1ccccc1CNC(=O)OCc1ccnc(C(=O)N[C@H]2CCC[C@@H](Nc3nc(-c4c[nH]c5ncc(F)cc45)ncc3F)C2)c1 [Compound A123] | > 100
6 | O=C(N[C@@H]1CCC[C@H](Nc2nc(-c3c[nH]c4ncc(F)cc34)ncc2F)C1)c1cc(CCCOCCOCc2ccc(F)cc2)ccn1 [Compound A36] | > 100
7 | CCOCCc1ccnc(C(=O)N[C@H]2CCC[C@@H](Nc3nc(-c4c[nH]c5ncc(F)cc45)ncc3F)C2)c1 [Compound A44] | 25 to 50
8 | CC(NC(=O)OCc1ccnc(C(=O)N[C@H]2CCC[C@@H](Nc3nc(-c4c[nH]c5ncc(F)cc45)ncc3F)C2)c1)c1ccc(F)cc1 (some centres unmarked) [Compound A131] | > 100
9 | CCOCc1cccc(COCCN(C)C(=O)N[C@@H]2CCC[C@H](Nc3nc(-c4c[nH]c5ncc(F)cc45)ncc3F)C2)c1 [Compound A184] | > 100
10 | CCOCc1cccc(COCC(=O)N[C@@H]2CCC[C@H](Nc3nc(-c4c[nH]c5ncc(F)cc45)ncc3F)C2)c1 [Compound A275] | > 100
11 | CN1CCC(CNC(=O)OCc2ccnc(C(=O)N[C@H]3CCC[C@@H](Nc4nc(-c5c[nH]c6ncc(F)cc56)ncc4F)C3)c2)CC1 [Compound A117] | 5 to 25
12 | O=C(NCc1cccnc1)OCc1ccnc(C(=O)N[C@@H]2CCC[C@H](Nc3nc(-c4c[nH]c5ncc(F)cc45)ncc3F)C2)c1 [Compound A93] | 5 to 25
13 | CN(CCCCCOCCOCc1ccccn1)C(=O)N[C@@H]1CCC[C@H](Nc2nc(-c3c[nH]c4ncc(F)cc34)ncc2F)C1 [Compound A222] | 50 to 100
14 | CCOCCOCCCCCN(C)C(=O)NC1CCC(Nc2nc(-c3c[nH]c4ncc(F)cc34)ncc2F)C1 (centres unmarked) [Compound A217] | > 100
15 | CCOc1ccc(CNC(=O)OCc2ccnc(C(=O)N[C@H]3CCC[C@@H](Nc4nc(-c5c[nH]c6ncc(F)cc56)ncc4F)C3)c2)cc1 [Compound A112] | > 100
16 | CCOc1cccc(-c2ccnc(C(=O)N[C@H]3CCC[C@@H](Nc4nc(-c5c[nH]c6ncc(F)cc56)ncc4F)C3)c2)c1 [Compound A52] | > 100
17 | CCOCCOCCOCCS(=O)(=O)N[C@@H]1CCC[C@H](Nc2nc(-c3c[nH]c4ncc(F)cc34)ncc2F)C1 [Compound A266] | 5 to 25
18 | CCOCCC(=O)N(CC)Cc1ccnc(C(=O)N[C@@H]2CCC[C@H](Nc3nc(-c4c[nH]c5ncc(F)cc45)ncc3F)C2)c1 [Compound A69] | < 5
19 | CCC(CC)OCCOCCCCCN(C)C(=O)N[C@H]1CCC[C@@H](Nc2nc(-c3c[nH]c4ncc(F)cc34)ncc2F)C1 [Compound A246] | > 100
20 | CCOCCOCCOCCN(Cc1ccccc1)C(=O)N[C@@H]1CCC[C@H](Nc2nc(-c3c[nH]c4ncc(F)cc34)ncc2F)C1 [Compound A176] | > 100
21 | CCOCc1cccc(COCc2ccnc(C(=O)N[C@H]3CCC[C@@H](Nc4nc(-c5c[nH]c6ncc(F)cc56)ncc4F)C3)c2)c1 [Compound A71] | > 100

Row | SMILES | EC50 [µM]
22 | CCOCCOCCOCCNC(=O)N[C@@H]1CCC[C@H](Nc2nc(-c3c[nH]c4ncc(F)cc34)ncc2F)C1 [Compound A168] | 5 to 25
23 | Cc1cccc(CNC(=O)OCc2ccnc(C(=O)N[C@H]3CCC[C@@H](Nc4nc(-c5c[nH]c6ncc(F)cc56)ncc4F)C3)c2)c1 [Compound A127] | > 100
24 | O=C(NCc1ccc(Oc2ccccc2)cc1)OCc1ccnc(C(=O)N[C@H]2CCC[C@@H](Nc3nc(-c4c[nH]c5ncc(F)cc45)ncc3F)C2)c1 [Compound A102] | > 100
25 | CCOCCOCCCCCN(C)C(=O)N1CCC(CNc2nc(-c3c[nH]c4ncc(F)cc34)ncc2F)C1 (centres unmarked) [Compound C8] | > 100
26 | O=C(O)CN1CCC[C@H](Nc2nc(-c3c[nH]c4ncc(F)cc34)ncc2F)C1 [Compound C12] | 5 to 25
27 | CC(C)NCCNC(=O)OCc1ccnc(C(=O)N[C@H]2CCC[C@@H](Nc3nc(-c4c[nH]c5ncc(F)cc45)ncc3F)C2)c1 [Compound A116] | 5 to 25
28 | NCCOCCOCCOCC(=O)N[C@@H]1CCC[C@H](Nc2nc(-c3c[nH]c4ncc(F)cc34)ncc2F)C1 [Compound A267] | 25 to 50
29 | Cc1cc(C(=O)N[C@H]2CCC[C@@H](Nc3nc(-c4c[nH]c5ncc(F)cc45)ncc3F)C2)ccn1 [Compound A51] | 5 to 25
30 | CCOCCOCCCCCNC(=O)N(C)[C@H]1CCC[C@@H](Nc2nc(-c3c[nH]c4ncc(F)cc34)ncc2F)C1 [Compound A219] | 25 to 50
31 | O=C(NCCOCCOCCOCCO)N[C@@H]1CCC[C@H](Nc2nc(-c3c[nH]c4ncc(F)cc34)ncc2F)C1 [Compound A166] | 5 to 25
32 | CCOc1ccccc1OCCCCCN(C)C(=O)N[C@H]1CCC[C@@H](Nc2nc(-c3c[nH]c4ncc(F)cc34)ncc2F)C1 [Compound A225] | > 100
33 | CN(CCCCCOCCOCc1ccccc1)C(=O)N[C@H]1CCC[C@@H](Nc2nc(-c3c[nH]c4ncc(F)cc34)ncc2F)C1 [Compound A221] | > 100
34 | CCCCCCCCCCC(=O)N[C@@H]1CCC[C@H](Nc2nc(-c3c[nH]c4ncc(F)cc34)ncc2F)C1 [Compound A271] | 50 to 100
35 | CCOCCOCCCCCN(C)C(=O)NCC(C)CNc1nc(-c2c[nH]c3ncc(F)cc23)ncc1F (centres unmarked) [Compound A218] | > 100
36 | O=C(NCc1ccccn1)OCc1ccnc(C(=O)N[C@H]2CCC[C@@H](Nc3nc(-c4c[nH]c5ncc(F)cc45)ncc3F)C2)c1 [Compound A96] | 5 to 25
37 | CCOCc1cccc(COCCNC(=O)N[C@@H]2CCC[C@H](Nc3nc(-c4c[nH]c5ncc(F)cc45)ncc3F)C2)c1 [Compound A187] | 50 to 100
38 | CCOCCOCCCCCOC(=O)N[C@@H]1CCC[C@H](Nc2nc(-c3c[nH]c4ncc(F)cc34)ncc2F)C1 [Compound A281] | > 100
39 | O=C(COCCOCCOCCO)N[C@@H]1CCC[C@H](Nc2nc(-c3c[nH]c4ncc(F)cc34)ncc2F)C1 [Compound A265] | 5 to 25
40 | COCc1cccc(-c2ccnc(C(=O)N[C@@H]3CCC[C@H](Nc4nc(-c5c[nH]c6ncc(F)cc56)ncc4F)C3)c2)c1 [Compound A61] | 25 to 50
41 | O=C(O)CCOCCOCCOCC(=O)N[C@H]1CCC[C@@H](Nc2nc(-c3c[nH]c4ncc(F)cc34)ncc2F)C1 [Compound A268] | < 5
42 | CCCCc1ccc(C(=O)N[C@@H]2CCC[C@H](Nc3nc(-c4c[nH]c5ncc(F)cc45)ncc3F)C2)nc1 [Compound A58] | 50 to 100

Row | SMILES | EC50 [µM]
43 | CCCCCCCCCCCNC(=O)N[C@@H]1CCC[C@H](Nc2nc(-c3c[nH]c4ncc(F)cc34)ncc2F)C1 [Compound A174] | 50 to 100
44 | O=C(O)CCCN1CCC[C@H](Nc2nc(-c3c[nH]c4ncc(F)cc34)ncc2F)C1 [Compound C7] | 5 to 25
45 | CCOCCOCCOCCN(C(=O)N(C)C)[C@@H]1CCC[C@H](Nc2nc(-c3c[nH]c4ncc(F)cc34)ncc2F)C1 [Compound B6] | > 100
46 | CCNC(=O)C(NC(=O)OCc1ccnc(C(=O)N[C@H]2CCC[C@@H](Nc3nc(-c4c[nH]c5ncc(F)cc45)ncc3F)C2)c1)C(C)(C)C (some centres unmarked) [Compound A149] | > 100
47 | CCCCCCCCCCCN(C)C(=O)N[C@@H]1CCC[C@H](Nc2nc(-c3c[nH]c4ncc(F)cc34)ncc2F)C1 [Compound A175] | 50 to 100
48 | O=C(NCCc1cccc(Oc2ccccc2)c1)OCc1ccnc(C(=O)N[C@H]2CCC[C@@H](Nc3nc(-c4c[nH]c5ncc(F)cc45)ncc3F)C2)c1 [Compound A109] | > 100
49 | O=C(NCCc1ccccc1)OCc1ccnc(C(=O)N[C@@H]2CCC[C@H](Nc3nc(-c4c[nH]c5ncc(F)cc45)ncc3F)C2)c1 [Compound A94] | > 100
50 | CN(CCOCCOCCOCCC(=O)O)C(=O)N[C@H]1CCC[C@@H](Nc2nc(-c3c[nH]c4ncc(F)cc34)ncc2F)C1 [Compound A171] | 25 to 50
51 | CCOCCOCCCCCN(CC)C(=O)N[C@H]1CCC[C@@H](Nc2nc(-c3c[nH]c4ncc(F)cc34)ncc2F)C1 [Compound A203] | > 100
52 | O=C(O)CNC(=O)OCc1ccnc(C(=O)N[C@@H]2CCC[C@H](Nc3nc(-c4c[nH]c5ncc(F)cc45)ncc3F)C2)c1 [Compound A107] | < 5
53 | O=C(NCC(=O)N1CCOCC1)OCc1ccnc(C(=O)N[C@H]2CCC[C@@H](Nc3nc(-c4c[nH]c5ncc(F)cc45)ncc3F)C2)c1 [Compound A121] | 5 to 25
54 | CCOCCOCCCC1CCN(C(=O)N[C@H]2CCC[C@@H](Nc3nc(-c4c[nH]c5ncc(F)cc45)ncc3F)C2)C1 (some centres unmarked) [Compound A11] | 5 to 25
55 | O=C(NCCOCC(F)(F)F)OCc1ccnc(C(=O)N[C@H]2CCC[C@@H](Nc3nc(-c4c[nH]c5ncc(F)cc45)ncc3F)C2)c1 [Compound A114] | 50 to 100
56 | CCOCCOCCCCCN(Cc1ccccc1)C(=O)N[C@@H]1CCC[C@H](Nc2nc(-c3c[nH]c4ncc(F)cc34)ncc2F)C1 [Compound A182] | 50 to 100
57 | O=C(N[C@@H]1CCC[C@H](Nc2nc(-c3c[nH]c4ncc(F)cc34)ncc2F)C1)c1cc(-c2ccc(F)cc2)ccn1 [Compound A60] | 5 to 25
58 | CC(NC(=O)OCc1ccnc(C(=O)N[C@H]2CCC[C@@H](Nc3nc(-c4c[nH]c5ncc(F)cc45)ncc3F)C2)c1)c1ccccc1F (some centres unmarked) [Compound A143] | > 100
59 | CCOCCOCCCc1ccnc(C(=O)N[C@H]2CCC[C@@H](Nc3nc(-c4c[nH]c5ncc(F)cc45)ncc3F)C2)c1 [Compound A288] | 5 to 25
60 | CCOc1ccc(C(C)NC(=O)OCc2ccnc(C(=O)N[C@H]3CCC[C@@H](Nc4nc(-c5c[nH]c6ncc(F)cc56)ncc4F)C3)c2)cc1 (some centres unmarked) [Compound A145] | > 100
61 | CCOCCCCCOCCNC(=O)N[C@H]1CCC[C@@H](Nc2nc(-c3c[nH]c4ncc(F)cc34)ncc2F)C1 [Compound A192] | > 100
62 | O=C(NCC1COCCN1)OCc1ccnc(C(=O)N[C@H]2CCC[C@@H](Nc3nc(-c4c[nH]c5ncc(F)cc45)ncc3F)C2)c1 (some centres unmarked) [Compound A120] | 5 to 25
